Values of other authors, collected in US4826688A, “Controlled absorption pharmaceutical formulation” (501 Elan Corporation PLC., priority 1985, dated 1989).

Row | Structure (SMILES) | absorption from the gastro-intestinal tract (in words) | peak plasma concentrations are reached (quinidine sulphate, usual) | excretion in the urine (in words)
1 | C=C[C@H]1C[N@@]2CC[C@H]1C[C@@H]2[C@@H](O)c1ccnc2ccc(OC)cc12 [Quinidine sulphate] | rapidly absorbed | about two | 
2 | C=C[C@H]1C[N@@]2CC[C@H]1C[C@@H]2[C@@H](O)c1ccnc2ccc(OC)cc12 [Quinidine, (+)-α-(6-methoxyquinolin-4-yl)-α-(5-vinylquinuclidin-2-yl)methanol] |  |  | almost entirely excreted in the urine
